The values that follow come from ChEMBL document CHEMBL5291721, “A preclinical secondary pharmacology resource illuminates target-adverse drug reaction associations of marketed drugs” (Nat Commun, 2023).

The target of one experiment is T1, Adenosine receptor A3 (Homo sapiens, UniProt P0DMS8).
T1 sequence (P0DMS8 whole entry): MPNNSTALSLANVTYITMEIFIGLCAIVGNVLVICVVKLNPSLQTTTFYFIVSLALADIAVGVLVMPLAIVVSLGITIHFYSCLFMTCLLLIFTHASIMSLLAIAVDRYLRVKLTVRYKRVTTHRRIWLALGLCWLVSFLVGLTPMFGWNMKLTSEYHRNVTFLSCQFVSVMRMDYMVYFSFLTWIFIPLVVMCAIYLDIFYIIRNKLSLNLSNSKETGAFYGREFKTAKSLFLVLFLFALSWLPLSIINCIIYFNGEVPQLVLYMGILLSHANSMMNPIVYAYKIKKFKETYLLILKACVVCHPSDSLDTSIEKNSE

The target in experiment [1] is T2, Type-1 angiotensin II receptor (Homo sapiens, UniProt P30556).
T2 sequence (P30556 whole entry): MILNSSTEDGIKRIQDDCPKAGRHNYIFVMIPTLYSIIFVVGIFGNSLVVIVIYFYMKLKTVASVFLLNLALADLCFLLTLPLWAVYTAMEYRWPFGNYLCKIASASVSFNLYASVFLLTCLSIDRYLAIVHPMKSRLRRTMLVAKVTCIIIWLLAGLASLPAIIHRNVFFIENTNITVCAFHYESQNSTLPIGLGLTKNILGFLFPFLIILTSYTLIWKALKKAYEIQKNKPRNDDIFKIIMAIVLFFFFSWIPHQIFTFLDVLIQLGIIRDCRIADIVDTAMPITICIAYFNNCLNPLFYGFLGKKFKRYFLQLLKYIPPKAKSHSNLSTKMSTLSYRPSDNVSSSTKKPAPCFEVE

In experiment [2] the target is Voltage-dependent L-type calcium channel subunit alpha-1C (Rattus norvegicus, UniProt P22002). Type of experiment: functional.
Sequence of Voltage-dependent L-type calcium channel subunit alpha-1C (P22002 whole entry): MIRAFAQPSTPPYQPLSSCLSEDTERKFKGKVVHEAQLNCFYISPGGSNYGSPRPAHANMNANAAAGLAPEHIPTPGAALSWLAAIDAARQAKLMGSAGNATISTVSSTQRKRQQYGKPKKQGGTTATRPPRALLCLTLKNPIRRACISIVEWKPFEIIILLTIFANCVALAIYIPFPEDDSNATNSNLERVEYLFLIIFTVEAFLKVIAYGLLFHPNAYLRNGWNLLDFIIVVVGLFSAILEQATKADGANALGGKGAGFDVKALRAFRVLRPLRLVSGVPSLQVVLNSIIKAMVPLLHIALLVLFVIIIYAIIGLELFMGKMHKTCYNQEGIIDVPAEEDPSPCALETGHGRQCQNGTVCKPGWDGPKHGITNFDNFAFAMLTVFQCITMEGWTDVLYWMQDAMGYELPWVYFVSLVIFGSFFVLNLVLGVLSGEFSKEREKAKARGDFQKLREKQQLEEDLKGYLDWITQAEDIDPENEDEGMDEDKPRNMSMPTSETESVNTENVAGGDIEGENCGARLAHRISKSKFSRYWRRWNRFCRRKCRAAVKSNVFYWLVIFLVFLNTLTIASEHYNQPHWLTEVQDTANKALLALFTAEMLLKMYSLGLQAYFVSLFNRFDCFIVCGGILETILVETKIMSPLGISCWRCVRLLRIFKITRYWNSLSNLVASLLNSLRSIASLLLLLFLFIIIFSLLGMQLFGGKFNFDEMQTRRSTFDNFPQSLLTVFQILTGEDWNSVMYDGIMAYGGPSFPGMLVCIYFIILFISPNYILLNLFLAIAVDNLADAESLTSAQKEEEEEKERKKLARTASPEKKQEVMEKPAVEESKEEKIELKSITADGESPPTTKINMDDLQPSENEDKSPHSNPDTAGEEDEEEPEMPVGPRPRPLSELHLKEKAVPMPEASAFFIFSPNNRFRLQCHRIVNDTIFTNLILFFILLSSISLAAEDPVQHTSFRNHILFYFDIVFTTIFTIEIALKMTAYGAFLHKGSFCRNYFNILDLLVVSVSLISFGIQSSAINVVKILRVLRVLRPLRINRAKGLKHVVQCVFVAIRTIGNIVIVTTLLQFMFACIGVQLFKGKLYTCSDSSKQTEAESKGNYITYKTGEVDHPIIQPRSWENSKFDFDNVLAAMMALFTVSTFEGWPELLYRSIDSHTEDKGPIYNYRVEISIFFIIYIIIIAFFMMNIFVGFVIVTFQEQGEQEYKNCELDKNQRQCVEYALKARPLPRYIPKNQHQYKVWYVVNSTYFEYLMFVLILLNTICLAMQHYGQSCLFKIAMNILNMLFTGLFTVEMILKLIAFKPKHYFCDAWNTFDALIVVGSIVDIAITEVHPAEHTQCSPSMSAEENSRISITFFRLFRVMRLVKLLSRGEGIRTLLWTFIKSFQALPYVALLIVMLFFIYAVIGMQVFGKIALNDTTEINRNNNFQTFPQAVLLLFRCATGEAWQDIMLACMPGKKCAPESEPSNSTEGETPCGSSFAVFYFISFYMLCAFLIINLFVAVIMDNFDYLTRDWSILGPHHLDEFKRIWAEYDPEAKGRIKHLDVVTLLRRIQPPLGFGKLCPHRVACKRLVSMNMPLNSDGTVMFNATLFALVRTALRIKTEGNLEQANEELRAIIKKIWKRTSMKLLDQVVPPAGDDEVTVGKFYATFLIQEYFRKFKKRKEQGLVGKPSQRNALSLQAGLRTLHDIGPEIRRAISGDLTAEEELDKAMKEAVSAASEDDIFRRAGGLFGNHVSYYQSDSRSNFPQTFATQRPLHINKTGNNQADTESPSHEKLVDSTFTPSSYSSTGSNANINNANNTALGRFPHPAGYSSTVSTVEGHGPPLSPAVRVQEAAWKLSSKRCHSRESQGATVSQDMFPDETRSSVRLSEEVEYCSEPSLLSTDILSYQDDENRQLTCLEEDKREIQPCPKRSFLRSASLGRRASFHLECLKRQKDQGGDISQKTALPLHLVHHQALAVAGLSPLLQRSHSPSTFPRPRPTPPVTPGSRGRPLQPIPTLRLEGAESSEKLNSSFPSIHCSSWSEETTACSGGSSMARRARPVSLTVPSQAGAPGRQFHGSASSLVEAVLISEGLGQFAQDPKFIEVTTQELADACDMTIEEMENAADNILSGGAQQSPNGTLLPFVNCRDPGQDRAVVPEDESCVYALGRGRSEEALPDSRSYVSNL
The target of experiment [3] is T3, Gastrin/cholecystokinin type B receptor (Homo sapiens, UniProt P32239).
T3 sequence (P32239 whole entry): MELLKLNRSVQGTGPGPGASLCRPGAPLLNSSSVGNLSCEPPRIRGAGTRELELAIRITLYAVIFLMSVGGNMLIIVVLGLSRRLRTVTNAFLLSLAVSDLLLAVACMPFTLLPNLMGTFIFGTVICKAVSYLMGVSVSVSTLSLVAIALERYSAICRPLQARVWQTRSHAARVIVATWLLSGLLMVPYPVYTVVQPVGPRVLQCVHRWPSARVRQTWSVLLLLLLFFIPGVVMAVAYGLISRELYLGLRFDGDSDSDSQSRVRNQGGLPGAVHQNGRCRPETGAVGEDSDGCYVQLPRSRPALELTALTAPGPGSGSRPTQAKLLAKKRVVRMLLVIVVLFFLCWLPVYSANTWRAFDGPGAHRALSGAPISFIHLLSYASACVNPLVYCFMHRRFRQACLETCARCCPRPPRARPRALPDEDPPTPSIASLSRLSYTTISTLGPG

For experiment [4], the target named is T4, 5-hydroxytryptamine receptor 2A (Homo sapiens, UniProt P28223). Type of experiment: functional, cell-based.
T4 sequence (P28223 whole entry): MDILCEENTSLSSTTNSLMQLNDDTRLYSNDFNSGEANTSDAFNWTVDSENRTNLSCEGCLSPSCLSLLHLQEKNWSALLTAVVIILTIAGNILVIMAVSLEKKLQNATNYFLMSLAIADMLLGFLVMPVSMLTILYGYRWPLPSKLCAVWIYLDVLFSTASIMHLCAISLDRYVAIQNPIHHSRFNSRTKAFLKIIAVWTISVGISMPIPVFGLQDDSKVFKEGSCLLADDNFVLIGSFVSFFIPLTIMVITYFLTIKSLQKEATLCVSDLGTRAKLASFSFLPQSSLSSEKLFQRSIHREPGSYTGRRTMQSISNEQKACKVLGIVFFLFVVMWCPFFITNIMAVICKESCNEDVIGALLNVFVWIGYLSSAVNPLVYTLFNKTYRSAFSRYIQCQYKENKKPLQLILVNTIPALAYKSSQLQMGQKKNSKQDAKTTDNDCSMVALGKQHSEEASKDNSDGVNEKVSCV
Experiment [5] concerns the target T4, 5-hydroxytryptamine receptor 2A. Type of experiment: functional, cell-based. The source holds these as a separate data set.
Experiment [6] addresses T5, Progesterone receptor (Homo sapiens, UniProt P06401).
T5 sequence (P06401 whole entry): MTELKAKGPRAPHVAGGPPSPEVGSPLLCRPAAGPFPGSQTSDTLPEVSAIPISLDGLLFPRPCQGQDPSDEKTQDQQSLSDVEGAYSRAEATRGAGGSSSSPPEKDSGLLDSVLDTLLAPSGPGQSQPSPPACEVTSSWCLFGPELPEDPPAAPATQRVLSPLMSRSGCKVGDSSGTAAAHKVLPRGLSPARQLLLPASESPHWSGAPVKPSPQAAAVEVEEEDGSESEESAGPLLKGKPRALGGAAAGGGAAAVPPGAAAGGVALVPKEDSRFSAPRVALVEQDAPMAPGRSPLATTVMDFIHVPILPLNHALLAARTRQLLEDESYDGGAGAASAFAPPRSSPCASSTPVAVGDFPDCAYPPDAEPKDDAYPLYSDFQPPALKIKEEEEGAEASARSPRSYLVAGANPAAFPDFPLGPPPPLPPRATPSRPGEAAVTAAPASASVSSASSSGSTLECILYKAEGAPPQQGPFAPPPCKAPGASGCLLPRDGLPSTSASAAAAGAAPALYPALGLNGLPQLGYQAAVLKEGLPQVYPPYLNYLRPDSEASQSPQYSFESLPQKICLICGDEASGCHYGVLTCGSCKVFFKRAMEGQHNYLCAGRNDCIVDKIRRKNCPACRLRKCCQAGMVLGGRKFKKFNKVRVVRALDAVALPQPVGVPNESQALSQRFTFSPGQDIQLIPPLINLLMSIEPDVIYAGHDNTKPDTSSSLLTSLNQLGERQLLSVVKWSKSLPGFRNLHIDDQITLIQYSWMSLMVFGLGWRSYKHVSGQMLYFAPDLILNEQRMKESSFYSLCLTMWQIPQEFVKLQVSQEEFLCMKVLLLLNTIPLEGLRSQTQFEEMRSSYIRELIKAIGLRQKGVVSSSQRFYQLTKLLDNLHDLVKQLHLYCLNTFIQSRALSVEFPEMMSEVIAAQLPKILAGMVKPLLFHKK
Type of experiment: functional.

The target in experiment [7] is T5, Progesterone receptor. Type of experiment: functional. This is another data set of the same source.
Experiment [8] concerns the target T6, Prostaglandin G/H synthase 1 (Rattus norvegicus, UniProt Q63921).
T6 sequence (Q63921 whole entry): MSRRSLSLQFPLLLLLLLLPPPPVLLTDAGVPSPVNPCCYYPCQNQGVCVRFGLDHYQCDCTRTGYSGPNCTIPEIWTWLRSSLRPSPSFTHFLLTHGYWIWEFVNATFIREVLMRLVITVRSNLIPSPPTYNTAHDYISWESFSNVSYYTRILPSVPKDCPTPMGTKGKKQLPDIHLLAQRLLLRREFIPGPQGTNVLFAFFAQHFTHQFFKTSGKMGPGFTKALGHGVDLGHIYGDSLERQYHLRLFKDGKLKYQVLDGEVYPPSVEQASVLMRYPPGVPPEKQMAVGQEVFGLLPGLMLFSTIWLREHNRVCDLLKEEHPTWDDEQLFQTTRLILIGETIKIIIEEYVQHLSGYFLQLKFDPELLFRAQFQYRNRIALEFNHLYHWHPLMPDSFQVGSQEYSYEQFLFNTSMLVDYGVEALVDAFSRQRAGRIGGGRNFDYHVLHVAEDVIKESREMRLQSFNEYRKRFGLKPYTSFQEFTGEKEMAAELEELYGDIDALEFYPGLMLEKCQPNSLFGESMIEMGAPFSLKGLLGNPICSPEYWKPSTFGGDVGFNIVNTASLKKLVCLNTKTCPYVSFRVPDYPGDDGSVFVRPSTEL
Type of experiment: functional.

Each structure is given as a SMILES string.
Further: assay procedure not described here.

As to `CC(C)C(=O)c1c(C(C)C)nn2ccccc12` [IBUDILAST], the half-maximal activity concentration (AC50) (on Adenosine receptor A3; in experiment [1]; in experiment [2]; in [3]; in experiment [4]; in experiment [5]) was more than 30 µM throughout. Also, the AC50 (at Progesterone receptor [6]; at Progesterone receptor [7]; in experiment [8]) was more than 30 µM in each case.
Regarding `CCC(C(=O)O)c1ccc(N2Cc3ccccc3C2=O)cc1` (configuration not stated) [INDOBUFEN], the AC50 (at Adenosine receptor A3; in [1]; in experiment [2]; in experiment [3]; in experiment [4]; in experiment [5]) was more than 30 µM in each case. For the same compound, the AC50 (commonly the concentration at which the activity in the assay is half-maximal) is more than 30 µM at Progesterone receptor [6], more than 30 µM on Progesterone receptor [7] and 0.8 µM in experiment [8].
As to `CC(C(=O)O)c1ccc(N2Cc3ccccc3C2=O)cc1` (configuration not stated) [INDOPROFEN], the half-maximal activity concentration (AC50) (on Adenosine receptor A3; in [1]; in [2]; in [3]; in experiment [4]; in experiment [5]) was more than 30 µM in each case. For the same compound, the values for the half-maximal activity concentration (AC50) (at Progesterone receptor [6]; at Progesterone receptor [7]; in [8]) were 16.8 µM, more than 30 µM and 0.0694 µM, respectively.
For the compound `COC(=O)C1=C(C)NC(C)=C(C(=O)OC(C)(C)CN(C)CCC(c2ccccc2)c2ccccc2)C1c1cccc([N+](=O)[O-])c1` (configuration not stated) [LERCANIDIPINE], the half-maximal activity concentration (AC50) at Adenosine receptor A3 is 8.8 µM; in [1], more than 30 µM; in [2], 0.046 µM; in experiment [3], more than 30 µM; in [4], more than 30 µM; in experiment [5], more than 30 µM. The AC50 is more than 30 µM at Progesterone receptor [6], more than 30 µM at Progesterone receptor [7] and 18.7 µM in experiment [8].
Regarding `CC(Oc1c(Cl)cccc1Cl)C1=NCCN1` (configuration not stated) [LOFEXIDINE], the half-maximal activity concentration (AC50) (at Adenosine receptor A3; in [1]; in experiment [2]; in experiment [3]; in experiment [4]; in [5]) was more than 30 µM in each case. In addition, the AC50 (at Progesterone receptor [6]; on Progesterone receptor [7]; in experiment [8]) was more than 30 µM in each case.
For the compound `CN1C(=O)C(O)N=C(c2ccccc2Cl)c2cc(Cl)ccc21` (configuration not stated) [LORMETAZEPAM], the AC50 (at Adenosine receptor A3; in experiment [1]; in [2]; in experiment [3]; in experiment [4]; in [5]) was more than 30 µM each time. Further, the AC50 was more than 30 µM on Progesterone receptor [6], more than 30 µM at Progesterone receptor [7] and more than 10 µM in [8].
As for `CC(C)=CCC/C(C)=C/C=C/C(C)=C/C=C/C(C)=C/C=C/C=C(C)/C=C/C=C(C)/C=C/C=C(\C)CCC=C(C)C` [LYCOPENE], the AC50 (at Adenosine receptor A3; in [1]; in experiment [2]; in [3]; in experiment [4]; in experiment [5]) was more than 30 µM each time. Also, the half-maximal activity concentration (AC50) at Progesterone receptor [6] is more than 30 µM; at Progesterone receptor [7] it was 6.2 µM; in experiment [8], more than 30 µM.
For the compound `Cc1cccc(C(C)c2cnc[nH]2)c1C` (configuration not stated) [MEDETOMIDINE], the AC50 (on Adenosine receptor A3; in experiment [1]; in experiment [2]; in [3]; in experiment [4]; in experiment [5]) was more than 30 µM throughout. Besides, the AC50 (on Progesterone receptor [6]; on Progesterone receptor [7]; in experiment [8]) was more than 30 µM in each case.
With `CCOC(=O)[N-]c1cn(N2CCOCC2)n[o+]1` [MOLSIDOMINE], the AC50 (on Adenosine receptor A3; in experiment [1]; in experiment [2]; in [3]; in experiment [4]; in [5]) was more than 30 µM throughout. In addition, the AC50 was more than 30 µM at Progesterone receptor [6], more than 30 µM on Progesterone receptor [7] and 24 µM in [8].
Turning to `OC(CNCC(O)C1CCc2cc(F)ccc2O1)C1CCc2cc(F)ccc2O1` (configuration not stated) [NEBIVOLOL], the AC50 on Adenosine receptor A3 was 19 µM; in experiment [1], more than 30 µM; in experiment [2] it was 24 µM; in experiment [3], more than 30 µM; in experiment [4], more than 30 µM; in [5], 7.1 µM. Further, the concentration at half-maximal activity (AC50) (at Progesterone receptor [6]; at Progesterone receptor [7]; in experiment [8]) was more than 30 µM in each case.
In the case of `COc1ccc2c3c1O[C@H]1C(=O)CC[C@@]4(O)[C@@H](C2)N(C)CC[C@]314` [OXYCODONE], the AC50 (at Adenosine receptor A3; in experiment [1]; in experiment [2]; in [3]; in [4]; in experiment [5]) was more than 30 µM throughout. The half-maximal activity concentration (AC50) (at Progesterone receptor [6]; at Progesterone receptor [7]; in experiment [8]) was more than 30 µM throughout.
As for `O=C(O)/C=C/c1ccc(Cn2ccnc2)cc1` [OZAGREL], the AC50 (at Adenosine receptor A3; in [1]; in [2]; in experiment [3]; in [4]; in [5]) was more than 30 µM throughout. The AC50 (at Progesterone receptor [6]; at Progesterone receptor [7]; in experiment [8]) was more than 30 µM each time.
Consider `CC(CC(c1ccccc1)c1ccccc1)NC(C)(C)C` (configuration not stated) [TERODILINE], for which the AC50 (at Adenosine receptor A3; in experiment [1]; in experiment [2]; in experiment [3]; in [4]; in [5]) was more than 30 µM in each case. In addition, the concentration at half-maximal activity (AC50) (at Progesterone receptor [6]; on Progesterone receptor [7]; in [8]) was more than 30 µM throughout.
